In patent US8765808B2, “Treatment or prevention of cancer and precancerous disorders” (CHS Pharma, Inc., priority 2005, dated 2014):
Entries after “also recorded” stand apart in the source; their conditions may differ.

How the values were obtained:
[1] = test system: SCC-25 squamous cell skin cancer cell line; test: MTS cell viability after pretreatment and oxidative stress, SCC skin cancer cells; format: cell-based, human; details: sulindac alone, concentrations below 1 mM, MTS assay
[2] = test system: MRC-5 normal human lung cell line; test: MTS cell viability after sulindac pretreatment and TBHP, normal lung cells; format: cell-based; details: 500 μM sulindac 24 hr, then TBHP 2 hr (FIG. 12)
Procedure: (§1) The cells were maintained in minimum essential medium (Eagle) supplemented with 2 mM L-glutamine, Earle's BSS containing 1.5 g/L sodium bicarbonate, 0.1 mM non-essential amino acids, 1.0 mM sodium pyruvate and 10% fetal bovine serum.

cancer cells = test: Constant non-toxic TBHP with escalating sulindac (FIG. 16), cancer cells; format: cell-based; details: escalating sulindac 500 μM-1500 μM
[3] = test system: Normal HEK skin cells (human neonatal epidermal keratinocytes); test: Intracellular ROS by indicator dye fluorescence, normal HEK skin cells
Procedure: Experimental conditions: Normal HEK skin cells plated onto 6-well plates at cell density of 60-70% confluence. Sulindac (0.5 mM)×24 hours (cell density remained about the same) followed by TBHP×2 hours followed by ROS indicator dye (5 μM)×1 hour (Table 1).
Human neonatal epidermal keratinocytes were plated into 6-well plates at a cell density of 60-70% confluence. The cultures were pretreated with sulindac (500 uM) for 34 hours followed by the addition of different concentrations of TBHP for 2 hours. During this period of time, the cell density in the 6-well plates remained the same (there was no increase in cell proliferation). This was followed by the addition of the ROS indicator dye.

[4] = test system: RKO colon cancer cell line; test: MTS cell viability after pretreatment and oxidative stress, RKO colon cancer cells; format: cell-based, human; details: 500 μM sulindac 24 hr pretreatment, then TBHP 2 hr (FIG. 4)
Procedure: RKO is a human colon carcinoma cell line developed by Michael Brattain [Brattain, 1984]. […] The cells were maintained in minimum essential medium (Eagle) supplemented with 2 mM L-glutamine, Earle's BSS containing 1.5 g/L sodium bicarbonate, 0.1 mM non-essential amino acids, 1.0 mM sodium pyruvate and 10% fetal bovine serum.
Experiments were performed with the RKO colon cancer cells that were pretreated with 500 μM sulindac using TBHP.

Normal lung cells = test: Intracellular ROS levels, normal lung cells; format: cell-based; details: combination of sulindac and TBHP
normal cells = test: Constant non-toxic TBHP with escalating sulindac (FIG. 16), normal cells; format: cell-based; details: escalating sulindac 500 μM-1500 μM
SCC skin cancer cells = test: Intracellular ROS by indicator dye fluorescence, SCC skin cancer cells
Procedure: SCC skin cancer cells were plated onto 6-well plates at a cell density of 50-60% confluence. The cultures were pretreated with sulindac (500 uM) for 24 hours followed by the addition of TBHP (100 uM) for two hours. During this period of time, the cell density in the 6-well plates increased to 80-90% confluent.

Lung cancer cells = test: Intracellular ROS levels, lung cancer cells; format: cell-based; details: combination of sulindac and TBHP vs either treatment alone
[5] = test system: precancerous growths and/or BCC's; test: Topical sulindac gel followed by hydrogen peroxide solution in patients; details: applied alone to the skin condition
[6] = test system: CCD-18Co normal human colon cell line; test: MTS cell viability after sulindac pretreatment and TBHP, normal colon cells; format: cell-based; details: 500 μM sulindac 24 hr, then TBHP 2 hr (FIG. 11)
Procedure: as §1

[7] = test system: lung carcinoma cell line designated A549; test: MTS cell viability after pretreatment and oxidative stress, lung cancer cells
Procedure: Cell viability was determined by the [sequence] 96®-Aqueous One Cell Proliferation Assay (Promega) according to the manufacturer's instructions. The assay utilizes a novel tetrazolium compound (3-(4,5-dimethylthiazol-2-yl)-5-(3-carboxymethoxyphenyl)-2-(4-sulfophenyl)-2H-tetrazolium; MTS) and an electron-coupling reagent (phenazine ethosulfate; PES). Metabolically active cells convert the MTS to a water-soluble formazan by the action of cellular dehydrogenases. The amount of formazan produced is measured by absorbance at 490 nm using a colorimetric microtiter plate reader (BIORAD; Model 2550). Absorbance is directly proportional to the number of viable cells.
Experiments using similar methods were performed with a lung carcinoma cell line designated A549. […] Cells were grown in Ham's F12K medium supplemented with final concentrations of 2 mM L-glutamine, 1.6 g/L sodium bicarbonate and 10% fetal bovine serum. Cultures were maintained between 6×10^3-6×10^4 cells/cm^2 in standard tissue culture flasks. The protocol for pretreatment of cells with 500 μM sulindac followed by a two hour exposure to various concentrations of TBHP was the same as that described for the RKO colon cancer cells.
Following a 24 hr pretreatment with 500 μM sulindac, the cells were washed once to remove the excess sulindac before exposure to TBHP for 2 hr.

[8] = test system: WM-266-4 Melanoma skin cell line; test: MTS cell viability after pretreatment and oxidative stress, melanoma cells; format: cell-based, human; details: 500 μM sulindac 24 hr pretreatment, then TBHP 2 hr (FIG. 8)
[9] = test system: Primary neonatal rat cardiac myocytes; test: Killing by peroxide after sulindac, normal cardiac cells; format: cell-based; details: sulindac followed by peroxide (hydrogen peroxide and TBHP)
Excerpt: (§2) Primary neonatal rat cardiac myocytes and ARPE-19, a human retinal pigment epithelial cell line that is not fully transformed, were used in similar experiments with sulindac followed by peroxide.

[10] = test system: SCC-25 squamous cell skin cancer cell line; test: MTS cell viability after pretreatment and oxidative stress, SCC skin cancer cells; format: cell-based, human; details: 500 μM sulindac 24 hr pretreatment, then TBHP 2 hr (FIG. 1)
Procedure: SCC-25 is a human squamous cell carcinoma cell line developed by J G Rheinwald [Rheinwald, 1981]. […] The cells were maintained in minimum essential medium (Eagle) supplemented with 2 mM L-glutamine, Earle's BSS containing 1.5 g/L sodium bicarbonate, 0.1 mM non-essential amino acids, 1.0 mM sodium pyruvate and 10% fetal bovine serum.
The experimental approach was to pretreat SCC cells with sulindac for 24 hr prior to exposure to TBHP for 2 hr. Sulindac (Sigma; S-8139) was freshly prepared as a 1M stock solution in 1M Tris.Cl, pH 8.0. SCC cells were suspended in culture medium containing 10% fetal bovine serum at a cell density of 6×10^5 cells/ml. Cell suspensions containing 500 μM sulindac or no sulindac (Control) were plated in 96 well microtiter plates with a total of 6×10^4 cells per well. The plates were incubated for 24 hr at 37° C. in a 5% CO2 incubator. The culture medium was then removed and the cells washed once with fresh culture medium without serum. After removal of the wash solution, fresh culture medium without serum that contained the indicated final concentration of TBHP was added to the cells for 2 hrs. Serum was omitted from the medium during the two-hour exposure to TBHP since TBHP may be rapidly depleted in the presence of serum.

[11] = test system: ARPE-19, a human retinal pigment epithelial cell line; test: Killing by peroxide after sulindac, retinal cells; format: cell-based; details: sulindac followed by peroxide (hydrogen peroxide and TBHP)
Excerpt: as §2

[12] = test system: normal human epidermal keratinocytes; test: Cell viability after sulindac pretreatment and oxidative stress, normal keratinocytes; format: cell-based
Procedure: Experiments using similar methods were performed with primary human neonatal foreskin epidermal keratinocytes. These cells were of low-passage and purified using previously accepted protocols (provided by J. Li, University of Miami, Fl.). Cells were grown in 50% Keratinocyte-SFM media [Gibco-Invitrogen (Catalog #17005-042) supplemented with human recombinant Epidermal Growth Factor 1-53 (EGF 1-53) and Bovine Pituitary Extract (BPE)] with 50% EpiLife medium [Cascade Biologics (Catalog #Epi-500-Ca)] supplemented with purified bovine serum albumin, purified bovine transferrin, hydrocortisone, recombinant human insulin-like growth factor type-1 (rhIGF-1), prostaglandin E2 (PGE2), and recombinant human epidermal growth factor (rhEGF).
Normal human epidermal keratinocyte cells were incubated for 24 hr in the presence or absence of 500 μM sulindac. The medium was removed and the cells washed once with fresh medium followed by addition of medium containing the indicated concentration of (a) TBHP or (b) arsenic trioxide. After a 2 hr incubation with TBHP or a 24-hour incubation with arsenic trioxide at 37° C., the cells were assayed for viability as described.

[13] = Time course of sulindac pre-incubation before addition of the oxidant; format: cell-based
Procedure: Sulindac was pre-incubated for various times prior to the addition of the oxidant. […] There was no difference in the results with longer time courses such as 48-72 hours. After the pre-incubation with sulindac, the cells were washed and the oxidant was added with or without sulindac.

CC1=C(CC(=O)O)c2cc(F)ccc2/C1=C\c1ccc([S+](C)[O-])cc1 (racemic) [sulindac, Sulindac]
toxicity of sulindac: effect on cell viability [1]: no detectable effect on cell viability | effect on oxidative stress by TBHP, normal lung cells [2]: provided protection from oxidative stress | effect on cancer cells (cancer cells): enhanced killing | % Cells with ROS Uptake by Fluorescence ([3]; Table 1, Sul alone, 0.5 mM 24 hours): 2% | % Cells containing ROS ([3]; Table 4, Sul 500 uM alone): 2% | level of ROS uptake in normal HEK cells when combined with TBHP ([3]; sulindac combined with TBHP vs sulindac or TBHP alone): no significant effect | killing of RKO carcinoma cells by TBHP [4]: enhanced the killing | intracellular ROS levels, normal lung cells (Normal lung cells): lower levels of ROS | effect on normal cells (normal cells): protective effect | % Cells with ROS Uptake by Fluorescence (SCC skin cancer cells; Table 2, Sul 0.5 mM 24 hours and/or TBHP 100 μM 2 hours): 3% | % Cells containing ROS (SCC skin cancer cells; Table 3, Sul 500 μM 24 hours and/or TBHP 100 μM 2 hours): 3% | number of spindle cells in the culture (SCC skin cancer cells; compared to untreated controls): tends to increase the number of spindle cells | ROS uptake in SCC skin cancer cells, sulindac in combination with TBHP (SCC skin cancer cells; sulindac 0.5 mM 24 hours then TBHP 100 μM 2 hours): geometrically enhances the levels of ROS uptake | ROS levels in SCC skin cancer cells, agent alone (SCC skin cancer cells; sulindac 500 uM or TBHP 100 uM alone): enhances the levels of ROS uptake; also recorded: enhanced the ROS levels | intracellular ROS levels, lung cancer cells (Lung cancer cells): significantly higher levels of ROS | effect on the precancerous or cancerous growth when applied alone [5]: no effect | effect on oxidative stress by TBHP, normal colon cells [6]: provided protection from oxidative stress | cell viability of lung cancer cells after exposure to TBHP ([7]; 500 μM sulindac 24 hr pretreatment, then TBHP 2 hr (FIG. 6)): marked decrease in cell viability | sensitivity of lung cancer cells to killing by H2O2 ([7]; 500 μM sulindac pretreatment (FIG. 7)): differentially sensitive to killing | viability of cells pretreated with sulindac ([7]; 1.5-2.0 mM TBHP, 2 hr, 500 μM sulindac pretreatment): at background levels | killing effect in all cancer cell studies ([7]; FIG. 15, 500 μM sulindac, 250 μM sulindac sulfone): most potent killing effect | H2O2 range in which difference in viability is highly significant (P<0.001) ([7]; sulindac-treated vs untreated cells): 2.5 to 5.0 mM | killing of Melanoma cells by TBHP [8]: enhanced the killing | killing of normal cardiac cells by peroxide [9]: no enhanced killing | killing of SCC carcinoma cells by TBHP [10]: enhanced the killing | killing of retinal cells by peroxide [11]: no enhanced killing | viability of normal human epidermal keratinocytes, TBHP ([12]; 500 μM sulindac 24 hr, then TBHP 2 hr (FIG. 10A)): no significant effect | viability of normal human epidermal keratinocytes, arsenic trioxide ([12]; 500 μM sulindac 24 hr, then arsenic trioxide 24 hr (FIG. 10B)): no significant effect | TBHP concentrations with protective effect (enhanced resistance to oxidative stress) ([12]; in combination with sulindac, effect lost above 400 μM TBHP): 50 to 400 µM | minimum pre-incubation time with sulindac to see an effect [13]: ≥ 6 h | pre-incubation time with sulindac giving optimum effects [13]: 18 to 24 h
